Assay results taken from PubChem BioAssay AID330 (DTP/NCI, 2004).
“And” between values parts separate entries of the source, which are not always exact repeats. Equal values may be shown once. Inconclusive results and toxic doses are left out. Rule for the calls: active = survival T/C of 150% or more; inactive = T/C below 125% in these data.

Test system: P388 leukemia ip, CD2F1 mice, survival T/C
Assay: NCI In Vivo Anticancer Drug Screen. Data for tumor model P388 Leukemia (intraperitoneal) in CD2F1 (CDF1) mice
Details: endpoint: median survival time, higher = longer survival
Method in brief: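 Mice carrying the transplanted tumor received test compound or vehicle. Survival was recorded in each group, and the value is the treated-group measurement divided by that of the vehicle-treated control group.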

[1] = dose: 60.0 mg/kg/injection, schedule: Q01DX005 (ip), vehicle: saline with Tween-80
[2] = dose: 120.0 mg/kg/injection, schedule: Q01DX005 (ip), vehicle: saline with Tween-80
[3] = dose: 240.0 mg/kg/injection, schedule: Q01DX005 (ip), vehicle: saline with Tween-80
[4] = dose: 25.0 mg/kg/injection, schedule: Q01DX009 (ip), vehicle: saline with Tween-80
[5] = dose: 50.0 mg/kg/injection, schedule: Q01DX009 (ip), vehicle: saline with Tween-80
[6] = dose: 100.0 mg/kg/injection, schedule: Q01DX009 (ip), vehicle: saline with Tween-80
[7] = dose: 100.0 mg/kg/injection, schedule: Q01DX001 (ip), vehicle: saline with Tween-80
[8] = dose: 200.0 mg/kg/injection, schedule: Q01DX001 (ip), vehicle: saline with Tween-80
[9] = dose: 400.0 mg/kg/injection, schedule: Q01DX001 (ip), vehicle: saline with Tween-80
[10] = dose: 50.0 mg/kg/injection, schedule: Q01DX005 (ip), vehicle: Klucel (hydroxypropylcellulose) (HPC)
[11] = dose: 100.0 mg/kg/injection, schedule: Q01DX005 (ip), vehicle: Klucel (hydroxypropylcellulose) (HPC)
[12] = dose: 200.0 mg/kg/injection, schedule: Q01DX005 (ip), vehicle: Klucel (hydroxypropylcellulose) (HPC)
[13] = dose: 60.0 mg/kg/injection, schedule: Q01DX005 (ip), vehicle: saline
[14] = dose: 120.0 mg/kg/injection, schedule: Q01DX005 (ip), vehicle: saline
[15] = dose: 240.0 mg/kg/injection, schedule: Q01DX005 (ip), vehicle: saline
[16] = dose: 50.0 mg/kg/injection, schedule: Q01DX009 (ip), vehicle: Klucel (hydroxypropylcellulose) (HPC)
[17] = dose: 100.0 mg/kg/injection, schedule: Q01DX009 (ip), vehicle: Klucel (hydroxypropylcellulose) (HPC)
[18] = dose: 200.0 mg/kg/injection, schedule: Q01DX009 (ip), vehicle: Klucel (hydroxypropylcellulose) (HPC)
[19] = dose: 200.0 mg/kg/injection, schedule: Q01DX009 (ip), vehicle: saline with Tween-80
[20] = dose: 100.0 mg/kg/injection, schedule: Q04DX003 (ip), vehicle: saline with Tween-80
[21] = dose: 50.0 mg/kg/injection, schedule: Q01DX005 (ip), vehicle: saline with Tween-80
[22] = dose: 100.0 mg/kg/injection, schedule: Q01DX005 (ip), vehicle: saline with Tween-80
[23] = dose: 100.0 mg/kg/injection, schedule: Q01DX009 (ip), vehicle: saline

Measured: T/C

O=C(O)CSc1nc(-c2ccccc2)c(-c2ccccc2)n1-c1ccccn1
inactive: dose: 25.0 mg/kg/injection, schedule: Q01DX009 (ip), vehicle: water 103 % of control and 124 % of control | dose: 50.0 mg/kg/injection, schedule: Q01DX009 (ip), vehicle: water 108 % of control and 97 % of control | dose: 100.0 mg/kg/injection, schedule: Q01DX009 (ip), vehicle: water 118 % of control and 122 % of control and 86 % of control | dose: 200.0 mg/kg/injection, schedule: Q01DX009 (ip), vehicle: water 115 % of control and 86 % of control

Cn1c2ccccc2c2nnc(N/N=C/c3ccc(Cl)cc3)nc21
inactive: dose: 100.0 mg/kg/injection, schedule: Q04DX002 (ip), vehicle: saline with Tween-80 88 % of control | dose: 200.0 mg/kg/injection, schedule: Q04DX002 (ip), vehicle: saline with Tween-80 87 % of control | dose: 400.0 mg/kg/injection, schedule: Q04DX002 (ip), vehicle: saline with Tween-80 98 % of control

Cc1ccc(S(=O)(=O)OCC2(COS(=O)(=O)c3ccc(C)cc3)CCC2)cc1
inactive: [1] 102 % of control | [2] 100 % of control | [3] 100 % of control

COC(=O)C1=C(C)NC2(C)SC1C(C)C2C(=O)OC (stereo not given)
inactive: dose: 12.5 mg/kg/injection, schedule: Q01DX009 (ip), vehicle: saline with Tween-80 92 % of control and 93 % of control | [4] 101 % of control and 93 % of control | [5] 90 % of control and 97 % of control | [6] 87 % of control and 90 % of control

CSC(=S)N/N=C(C)\C=N/Nc1ccccc1
inactive: dose: 100.0 mg/kg/injection, schedule: Q04DX002 (ip), vehicle: saline 101 % of control | dose: 200.0 mg/kg/injection, schedule: Q04DX002 (ip), vehicle: saline 106 % of control | dose: 400.0 mg/kg/injection, schedule: Q04DX002 (ip), vehicle: saline 96 % of control

C=C(C(=O)OC)C1C=CCCCC1 (stereo not given)
inactive: [7] 114 % of control | [8] 113 % of control | [9] 105 % of control

O=C1CCOCCCOCCC(=O)OCCCO1
inactive: [10] 104 % of control | [11] 101 % of control | [12] 101 % of control

O=C(O)c1ncnn1-c1ccccc1
inactive: [13] 91 % of control | [14] 96 % of control | [15] 99 % of control

N#CC1=C(N)Oc2c(c(-c3ccccc3)nn2-c2ccccc2)C1c1ccccc1 (stereo not given)
inactive: [16] 100 % of control | [17] 105 % of control | [18] 100 % of control

Cc1ccnc(NS(=O)(=O)c2ccc(N=Nc3c(O)n(-c4ccccc4)n(-c4ccccc4)c3=O)cc2)n1
inactive: [16] 86 % of control | [17] 86 % of control | [18] 91 % of control

O=C(Nc1cc2c3ccccc3ccc2c2ccccc12)C(Cl)Cl
inactive: [1] 100 % of control | [2] 100 % of control | [3] 102 % of control

O=C1NC(=O)C(=NC2C(=O)NC(=O)NC2=O)C(=O)N1
inactive: dose: 30.0 mg/kg/injection, schedule: Q01DX005 (ip), vehicle: saline 96 % of control | [13] 92 % of control and 95 % of control | [14] 92 % of control | [15] 86 % of control

CC(C)(C)CC(C)(C)c1ccc(OCc2ccc(Cl)c(Cl)c2)cc1
inactive: [5] 100 % of control | [6] 100 % of control | [19] 91 % of control

COc1cccc(/C=C/c2cc3c(cc2Br)OCO3)c1
inactive: [10] 102 % of control | [11] 108 % of control | [12] 101 % of control

Nc1nc(N)c2nc(Sc3ccc(Cl)cc3)c(-c3ccccc3)nc2n1
inactive: dose: 25.0 mg/kg/injection, schedule: Q04DX003 (ip), vehicle: saline with Tween-80 95 % of control | dose: 50.0 mg/kg/injection, schedule: Q04DX003 (ip), vehicle: saline with Tween-80 91 % of control | [20] 93 % of control

COC(=O)CCN1CCCC1CC(O)/C=C/c1ccccc1 (stereo not given)
inactive: [7] 93 % of control | [8] 100 % of control | [9] 106 % of control

CC1=CCN(C)C(C#N)C1 (stereo not given)
inactive: dose: 12.5 mg/kg/injection, schedule: Q01DX005 (ip), vehicle: saline 97 % of control | dose: 25.0 mg/kg/injection, schedule: Q01DX005 (ip), vehicle: saline 105 % of control | dose: 50.0 mg/kg/injection, schedule: Q01DX005 (ip), vehicle: saline 105 % of control

O=C(Nc1ccc(Cl)cc1)Nc1nnc(Cc2ccc(Cl)cc2)o1
inactive: [21] 99 % of control | [22] 87 % of control

CCOC=C=CCOCC
inactive: [13] 100 % of control | [14] 96 % of control | [15] 96 % of control

COc1ncnc2c1nnn2C1OC(CO)C(O)C1O (stereo not given)
inactive: dose: 25.0 mg/kg/injection, schedule: Q04DX003 (ip), vehicle: saline 96 % of control | dose: 50.0 mg/kg/injection, schedule: Q04DX003 (ip), vehicle: saline 105 % of control | dose: 100.0 mg/kg/injection, schedule: Q04DX003 (ip), vehicle: saline 100 % of control | dose: 200.0 mg/kg/injection, schedule: Q04DX003 (ip), vehicle: saline 109 % of control

CCCCCCSC(=O)Nc1ccc(C)c(NC(=O)SCCCCCC)c1
inactive: [5] 100 % of control | [6] 100 % of control | [19] 100 % of control

C[C@H](CCC1=NC(C)(C)CO1)C1CCC2[C@@H]3C(O)C[C@@H]4CC(O)CC[C@]4(C)C3CC[C@@]21C (stereo not given in full)
inactive: [1] 90 % of control | [2] 87 % of control

O=C(CC(O)(c1ccccc1)c1ccccc1)SCc1ccccc1
inactive: dose: 100.0 mg/kg/injection, schedule: Q04DX003 (ip), vehicle: Klucel (hydroxypropylcellulose) (HPC) 102 % of control | dose: 200.0 mg/kg/injection, schedule: Q04DX003 (ip), vehicle: Klucel (hydroxypropylcellulose) (HPC) 98 % of control | dose: 400.0 mg/kg/injection, schedule: Q04DX003 (ip), vehicle: Klucel (hydroxypropylcellulose) (HPC) 110 % of control

O=C1C=CC(Cc2ccccc2)N1C(=O)c1ccccc1 (stereo not given)
inactive: [21] 99 % of control | [22] 100 % of control | dose: 200.0 mg/kg/injection, schedule: Q01DX005 (ip), vehicle: saline with Tween-80 97 % of control

O=C(CCl)NCc1ccc([N+](=O)[O-])cc1
inactive: [4] 108 % of control | [5] 112 % of control | [6] 108 % of control | [19] 103 % of control

O=C(NO)c1ccccc1O
inactive: [6] 110 % of control | [20] 86 % of control | [19] 100 % of control | dose: 200.0 mg/kg/injection, schedule: Q04DX003 (ip), vehicle: saline with Tween-80 90 % of control | dose: 400.0 mg/kg/injection, schedule: Q01DX009 (ip), vehicle: saline with Tween-80 110 % of control | dose: 400.0 mg/kg/injection, schedule: Q04DX003 (ip), vehicle: saline with Tween-80 100 % of control

COC(=O)c1nc2[nH]n(-c3ccccc3)c(=O)c2c2c1CCCCCCCCCC2
inactive: [13] 102 % of control | [14] 96 % of control | [15] 96 % of control

CC(=O)Nc1ccc2c(c1)/C(=C/c1ccc(N(C)C)cc1)c1ccccc1-2
inactive: dose: 25.0 mg/kg/injection, schedule: Q01DX009 (ip), vehicle: Klucel (hydroxypropylcellulose) (HPC) 91 % of control | [16] 96 % of control | [17] 96 % of control | [18] 100 % of control

CC(=O)N(C)c1ccc(NC(=O)Nc2cc(C)ccc2C)cc1
inactive: dose: 50.0 mg/kg/injection, schedule: Q01DX009 (ip), vehicle: saline 91 % of control | [23] 88 % of control

Cc1ccc(N)c(O)c1
inactive: [23] 102 % of control and 105 % of control | dose: 200.0 mg/kg/injection, schedule: Q01DX009 (ip), vehicle: saline 100 % of control and 103 % of control | dose: 400.0 mg/kg/injection, schedule: Q01DX009 (ip), vehicle: saline 101 % of control and 113 % of control | dose: 600.0 mg/kg/injection, schedule: Q01DX009 (ip), vehicle: saline 115 % of control

COC(=O)C12CC=CCC1(C(=O)OC)CC=CC2 (stereo not given)
inactive: [16] 101 % of control | [17] 100 % of control | [18] 102 % of control
